Measured values as given in patent US20240318141A1, “MATURATION AGENT” (Orizuru Therapeutics, Inc., priority 2021, published 2024).

Columns and labels:
[1] = system: insulin-producing cell population (QHJI-114s04 iPS cell line); experiment: Marker protein expression by flow cytometry of insulin-producing cell population prepared by addition of docetaxel (Example 3); format: cell-based, human
Description: The differentiation of a QHJI-114s04 iPS cell line into insulin-producing cells was induced by the three-dimensional culture method using a bioreactor and a multiwell plate according to steps 1) to 6) described above and the previous report (Nature Biotechnology 2014; 32: 1121-1133). Specifically, the iPS cells were subjected to the first culture in a medium (DMEM/1% B-27 (INS+)/Penicillin Streptomycin/dimethyl sulfoxide) containing differentiation-inducing factors (GSK3β inhibitor, ROCK inhibitor and low dose of activin A) under conditions causing action of insulin, and subsequently subjected to the second culture in a medium (DMEM/1% B-27 (INS−)/Penicillin Streptomycin/dimethyl sulfoxide) containing a differentiation-inducing factor (low dose of activin A) under conditions causing no action of insulin to obtain definitive endoderm cells. Further, a pancreatic endocrine progenitor cell population obtained by the induction of differentiation from the definitive endoderm cells was cultured in a medium (MCDB131/20 mM Glucose/NaHCO3/FAF-BSA/ITS-X/Glutamax/Penicillin Streptomycin) containing differentiation-inducing factors (ALK5 inhibitor II, T3, LDN, γ-secretase inhibitor RO, […]) to obtain an insulin-producing cell population. The exchange from the bioreactor to the multiwell plate was carried out in step 6).
Marker protein expression (NKX6.1, C-peptide (insulin), CHGA, and Ki67) in each insulin-producing cell population after the completion of culture was measured by flow cytometry. Respective samples were collected by sampling from separate culture containers. The number of cells was measured in an automatic cell counter at the time of sample preparation for flow cytometry, and the total number of cells per well of the multiwell plate was calculated.

[2] = system: non-endocrine cells in graft (Outgrowth, Cyst); experiment: Evaluation of non-endocrine cells in graft and protein expression by HE and immunohistological staining (Example 5); format: in vivo, mouse; settings: graft 6 months after transplantation
Procedure: The excised graft was fixed and dehydrated, and a paraffin section was then prepared and subjected to HE staining and immunohistological staining for the expression of the proteins of interest (insulin, glucagon, Ki67, human nucleus, PDX1, and CK19). The presence or absence of non-endocrine cells was confirmed on the basis of the morphology and staining image thereof. The number and frequency of non-endocrine cells appearing in the graft were counted as total numbers from four tests conducted with cells derived from a plurality of batches treated in the same manner.
Outgrowth shown in Table 9 refers to a population of human nucleus-positive, PDX1-negative, and Ki67-positive non-endocrine cells, and its presence was determined from morphology by HE staining as well as by immunohistological staining. Cyst shown in Table 9 refers to human nucleus-positive, PDX1-positive, and CK19-positive non-endocrine duct cells, and its presence was determined from a duct form by HE staining as well as by immunohistological staining.

CC(=O)O[C@@]12CO[C@@H]1C[C@H](O)[C@@]1(C)C(=O)[C@H](O)C3=C(C)[C@@H](OC(=O)[C@H](O)[C@@H](NC(=O)OC(C)(C)C)c4ccccc4)C[C@@](O)([C@@H](OC(=O)c4ccccc4)[C@H]21)C3(C)C [Docetaxel, (−)-(1S,2S,3R,4S,5R,7S,8S,10R,13S)-4-Acetoxy-2-benzoyloxy-5,20-epoxy-1,7,10-trihydroxy-9-oxotax-11-en-13-yl (2R,3S)-3-tert-butoxycarbonylamido-2-hydroxy-3-phenylpropionate]
increase of proportion of INS-positive and NKX6.1-positive cells ([1]; 1 μM docetaxel, 7 days from day 4 of step 6), with respect to control cell population): about 10%
Total number of cells ([1]; docetaxel treatment 1, 3 or 10 μM): not changed
abundance of CHGA-negative and Ki67-positive (CHGA−/Ki67+) cells ([1]; medium with PD-166866, irrespective of presence or absence of docetaxel treatment, without extended culture): ≤ 0.1%
action on proportion of INS-positive and NKX6.1-positive cells at higher concentration ([1]; up to the docetaxel concentration of 10 μM): not changed
Ki67-positive cells in graft (immunohistological staining) [2]: slightly scattered
insulin-positive and glucagon-positive cells in graft (immunohistological staining) [2]: many insulin-positive and glucagon-positive cells were confirmed throughout the whole graft
Frequency of appearance (%), Cyst ([2]; total of 4 tests, 21 animals): 10%
Frequency of appearance (%), Outgrowth ([2]; total of 4 tests, 21 animals): 0%
The number of appearance, Cyst ([2]; total of 4 tests, 21 animals): 2
The number of appearance, Outgrowth ([2]; total of 4 tests, 21 animals): 0
